{"source": "ChEMBL document CHEMBL4428112", "about": "“Columnaristerol A, a novel 19-norsterol from the Formosan octocoral Nephthea columnaris” (Bioorg Med Chem Lett, 2016)", "format_in_all_cases": "functional, cell-based", "key": {"K562 [1]": {"test_system": "K562", "test": "Cytotoxicity against human K562 cells assessed as growth inhibition after 72 hrs by MTT assay", "settings": "K562, 72 h"}, "U-937 [2]": {"test_system": "U-937", "test": "Cytotoxicity against human U937 cells assessed as growth inhibition after 72 hrs by MTT assay", "settings": "U-937, 72 h"}, "SUP-T1": {"test_system": "SUP-T1", "test": "Cytotoxicity against human SupT1 cells assessed as growth inhibition after 72 hrs by MTT assay", "settings": "SUP-T1, 72 h"}, "K562 [3]": {"test_system": "K562", "test": "Cytotoxicity against human K562 cells assessed as growth inhibition at 20 ug/ml after 72 hrs by MTT assay"}, "MOLT-4": {"test_system": "MOLT-4", "test": "Cytotoxicity against human MOLT4 cells assessed as growth inhibition after 72 hrs by MTT assay", "settings": "MOLT-4, 72 h"}, "U-937 [4]": {"test_system": "U-937", "test": "Cytotoxicity against human U937 cells assessed as growth inhibition at 20 ug/ml after 72 hrs by MTT assay"}}, "note": "The source made the active and inactive calls. The rule behind the calls is not given here."}
{"compound": "COc1cccc2c1C(=O)c1c(O)c3c(c(O)c1C2=O)C[C@@](O)(C(=O)CO)C[C@@H]3O[C@H]1C[C@H](N)[C@H](O)[C@H](C)O1", "note": "[DOXORUBICIN]", "values": [{"measurement": "IC50", "setting": "K562 [1]", "value": 280, "unit": "nM"}, {"measurement": "IC50", "setting": "U-937 [2]", "value": 420, "unit": "nM"}, {"measurement": "IC50", "setting": "SUP-T1", "value": 40, "unit": "nM"}]}
{"compound": "C=C(CC[C@@H](C)[C@H]1CC[C@H]2[C@@H]3CC=C4C[C@@H](O)CC[C@]4(O)[C@H]3CC[C@]12C)C(C)C", "values": [{"measurement": "growth inhibition (GI)", "setting": "K562 [3]", "value": "inactive"}, {"measurement": "IC50", "setting": "SUP-T1", "value": 25500, "unit": "nM"}, {"measurement": "IC50", "setting": "MOLT-4", "value": 18300, "unit": "nM"}, {"measurement": "growth inhibition (GI)", "setting": "U-937 [4]", "value": "inactive"}]}
